In experiment [1] the target is T1, CD73 enzymatic activity expressed on the cell surface of MDA-MB-231 cells (Homo sapiens, UniProt P21589).
T1 construct: Human breast cancer cells MDA-MB-231 that endogenously express CD73 were used; host or cells: MDA-MB-231
T1 sequence (P21589 27-549): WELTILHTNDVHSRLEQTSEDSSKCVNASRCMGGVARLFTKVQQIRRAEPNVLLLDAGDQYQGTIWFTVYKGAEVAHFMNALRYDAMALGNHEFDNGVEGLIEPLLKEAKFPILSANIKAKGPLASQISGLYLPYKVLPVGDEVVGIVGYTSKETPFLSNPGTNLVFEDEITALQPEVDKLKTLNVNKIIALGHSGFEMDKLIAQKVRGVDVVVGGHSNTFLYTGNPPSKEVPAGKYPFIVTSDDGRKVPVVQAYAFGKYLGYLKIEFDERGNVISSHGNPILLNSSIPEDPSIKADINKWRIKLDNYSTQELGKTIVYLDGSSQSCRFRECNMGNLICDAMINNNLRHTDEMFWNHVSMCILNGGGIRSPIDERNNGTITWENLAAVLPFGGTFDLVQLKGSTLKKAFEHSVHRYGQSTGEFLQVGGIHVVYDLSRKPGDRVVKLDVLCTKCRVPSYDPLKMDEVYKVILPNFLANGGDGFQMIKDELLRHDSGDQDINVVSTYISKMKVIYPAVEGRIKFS
Kind of experiment: Inhibition of CD73 enzymatic activity on the cell surface (Cell Titer Glo (CTG) experiment), MDA-MB-231 cells. The experiment is classed as cell-based. To be noted: MDA-MB-231 cells endogenously expressing CD73, AMP, 37° C. for 2 hours, CTG readout; read-out: Cellular activity IC50. As for the experimental part: Human breast cancer cells MDA-MB-231 that endogenously express CD73 were used in the present invention to evaluate the inhibition of the compound against the CD73 enzymatic activity expressed on the cell surface. The cells used were from the Cell Bank of the Chinese Academy of Sciences. The specific experimental procedures were as follows:
1. Before the test, MDA-MB231 cells were seeded to a 96-well plate at 20000 cells/well;
2. In RPMI1640, 10% fetal bovine serum (Gibco, 10099-141), placed in a 5% CO2 incubator at 37° C. overnight (the cells were washed three times by using a serum-free RPMI medium right before the test):
3. 50 μl of serum-free media containing the compounds at different concentrations were added to the cells and incubated for 15 minutes;
4. 25 μL of 1.2 mM AMP was added for incubation at 37° C. for 2 hours, 25 μL of supernatant was then collected from the cells and mix with 25 μL of 100 μM ATP, and then the concentration of AMP in the samples was determined by CTG (Promega, #G7573);
5. Then, a reduction ratio of the substrate AMP level in the cell culture supernatant collected after the reaction was quantitatively determined to evaluate the inhibitory effects of the examples of the present invention and the positive compounds against the CD73 enzymatic activity on the cell surface;
6. Finally, the concentration of the compound leading to half maximal inhibition of enzymatic activity (IC50) was determined using a four-parameter non-linear logistic model curve fit in Graphpad Prism.
In general terms: Cellular ATP, detected with luciferase, serves as a proxy for viable cell number.

The target in the next experiment is T2, CD73 (Homo sapiens, UniProt P21589).
T2 construct: purchased R&D systems 5795-EN-010
T2 sequence (P21589 27-547 limits assumed): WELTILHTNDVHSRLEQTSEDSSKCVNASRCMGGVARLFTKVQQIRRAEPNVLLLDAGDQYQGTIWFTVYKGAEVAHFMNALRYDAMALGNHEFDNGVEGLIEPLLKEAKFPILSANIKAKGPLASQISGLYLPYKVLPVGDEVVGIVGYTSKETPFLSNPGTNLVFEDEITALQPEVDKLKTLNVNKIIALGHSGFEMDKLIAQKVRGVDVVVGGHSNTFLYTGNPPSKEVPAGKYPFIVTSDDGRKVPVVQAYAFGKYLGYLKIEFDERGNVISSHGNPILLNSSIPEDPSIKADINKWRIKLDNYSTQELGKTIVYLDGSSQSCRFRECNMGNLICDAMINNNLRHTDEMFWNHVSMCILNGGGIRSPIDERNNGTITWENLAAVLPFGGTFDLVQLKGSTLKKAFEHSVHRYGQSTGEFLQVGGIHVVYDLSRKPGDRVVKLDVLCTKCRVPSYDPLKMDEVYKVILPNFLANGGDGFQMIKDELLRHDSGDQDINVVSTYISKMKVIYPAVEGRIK
Kind of experiment: In vitro enzymatic activity against CD73 (malachite green test using soluble CD73). The experiment is classed as biochemical. Particulars: soluble CD73 36 ng/mL, 50 μM AMP, 30 minutes at 25° C. On the procedure: The malachite green test using soluble CD73, which is synthesized in vitro was used in the present invention to determine the characteristics of inhibitory activity of the compounds against CD73. The specific experimental procedures were as following:
1. The enzyme reaction in this experiment was carried out in 384-well plates, and CD73 (R&D systems #5795-EN-010) at a concentration of 36 ng/mL, the compounds at different concentrations and 50 μM AMP were incubated for 30 minutes at 25° C. in a 40 uL reaction system (consisting of 25 mM Tris pH 7.5, 5 mM MgCl2, and 0.005% Tween-20);
2. Then, 10 μL of malachite green solution (Sigma) was added to each well to terminate the reaction;
3. The concentration of resulting inorganic phosphate was determined according to the instructions of the reagent manufacturer;
4. The enzymatic activity of CD73 was calculated based on the concentration of the product, and then IC50 values were determined by non-linear regression analysis of the inhibition percentage of the compounds of the present invention at different concentrations.

For twelve compounds, IC50 results are on record in US12157755B2, “CD73 inhibitor, preparation method therefor and application thereof” (Abbisko Therapeutics Co., Ltd., priority 2019, dated 2024).

The term IC50 denotes the concentration needed to halve the response being measured. With `O=P(O)(O)CP(=O)(O)OC[C@H]1O[C@@H](n2ncc3c(N[C@H]4CCc5ccccc54)cc(Cl)nc32)[C@H](O)[C@@H]1O` [Example 12, (((((2R,3S,4R,5R)-5-(6-chloro-4-(((S)-2,3-dihydro-1H-inden-1-yl)amino)-1H-pyrazolo[3,4-b]pyridin-1-yl)-3,4-dihydroxytetrahydrofuran-2-yl)methoxy)(hydroxy)phosphoryl)methyl)phosphonic acid], the IC50 (in experiment [1]; against CD73) was 0.26 nM each time.

Turning to `O=P(O)(O)CP(=O)(O)OC[C@H]1O[C@@H](n2ncc3c(N[C@@H]4CCc5ccccc54)cc(Cl)nc32)[C@H](O)[C@@H]1O` [Example 13, (((((2R,3S,4R,5R)-5-(6-chloro-4-(((R)-2,3-dihydro-1H-inden-1-yl)amino)-1H-pyrazolo[3,4-b]pyridin-1-yl)-3,4-dihydroxytetrahydrofuran-2-yl)methoxy)(hydroxy)phosphoryl)methyl)phosphonic acid], the IC50 was 0.13 nM in experiment [1] and 0.42 nM on CD73.

For the compound `CN(c1cc(Cl)nc2c1cnn2[C@@H]1O[C@H](COP(=O)(O)CP(=O)(O)O)[C@@H](O)[C@H]1O)[C@H]1CCc2ccccc21` [Example 14, (((((2R,3S,4R,5R)-5-(6-chloro-4-(((S)-2,3-dihydro-1H-inden-1-yl)(methyl)amino)-1H-pyrazolo[3,4-b]pyridin-1-yl)-3,4-dihydroxytetrahydrofuran-2-yl)methoxy)(hydroxy)phosphoryl)methyl)phosphonic acid], the IC50 in experiment [1] stood at 0.45 nM; on CD73, 0.16 nM.

Turning to `CN(c1cc(Cl)nc2c1cnn2[C@@H]1O[C@H](COP(=O)(O)CP(=O)(O)O)[C@@H](O)[C@H]1O)[C@@H]1CCc2ccccc21` [Example 15, (((((2R,3S,4R,5R)-5-(6-chloro-4-(((R)-2,3-dihydro-1H-inden-1-yl)(methyl)amino)-1H-pyrazolo[3,4-b]pyridin-1-yl)-3,4-dihydroxytetrahydrofuran-2-yl)methoxy)(hydroxy)phosphoryl)methyl)phosphonic acid], the IC50 was 0.121 nM in experiment [1] and 0.97 nM at CD73.

Regarding `O=P(O)(O)CP(=O)(O)OC[C@H]1O[C@@H](n2ncc3c(N[C@@H]4CCc5cc(F)ccc54)cc(Cl)nc32)[C@H](O)[C@@H]1O` [Example 16, (((((2R,3S,4R,5R)-5-(6-chloro-4-(((R)-5-fluoro-2,3-dihydro-1H-inden-1-yl)amino)-1H-pyrazolo[3,4-b]pyridin-1-yl)-3,4-dihydroxytetrahydrofuran-2-yl)methoxy)(hydroxy)phosphoryl)methyl)phosphonic acid], the values for the IC50 (in experiment [1]; at CD73) were 0.176 nM and 0.34 nM, respectively.

With `O=P(O)(O)CP(=O)(O)OC[C@H]1O[C@@H](n2ncc3c(N[C@@H]4CCc5ccc(F)cc54)cc(Cl)nc32)[C@H](O)[C@@H]1O` [Example 17, (((((2R,3S,4R,5R)-5-(6-chloro-4-(((R)-6-fluoro-2,3-dihydro-1H-inden-1-yl)amino)-1H-pyrazolo[3,4-b]pyridin-1-yl)-3,4-dihydroxytetrahydrofuran-2-yl)methoxy)(hydroxy)phosphoryl)methyl)phosphonic acid], the IC50 in experiment [1] was 0.14 nM; at CD73, 0.32 nM.

As to `O=P(O)(O)CP(=O)(O)OC[C@H]1O[C@@H](n2ncc3c(N[C@@H]4CCc5cc(Cl)ccc54)cc(Cl)nc32)[C@H](O)[C@@H]1O` [Example 18, (((((2R,3S,4R,5R)-5-(6-chloro-4-(((R)-5-chloro-2,3-dihydro-1H-inden-1-yl)amino)-1H-pyrazolo[3,4-b]pyridin-1-yl)-3,4-dihydroxytetrahydrofuran-2-yl)methoxy)(hydroxy)phosphoryl)methyl)phosphonic acid], the IC50 in experiment [1] stood at 0.24 nM; against CD73, 1.67 nM.

Take `O=P(O)(O)CP(=O)(O)OC[C@H]1O[C@@H](n2ncc3c(N[C@@H]4CCc5cc(C(F)(F)F)ccc54)cc(Cl)nc32)[C@H](O)[C@@H]1O` [Example 19, (((((2R,3S,4R,5R)-5-(6-chloro-4-(((R)-5-(trifluoromethyl)-2,3-dihydro-1H-inden-1-yl)amino)-1H-pyrazolo[3,4-b]pyridin-1-yl)-3,4-dihydroxytetrahydrofuran-2-yl)methoxy)(hydroxy)phosphoryl)methyl)phosphonic acid]: the figures for the IC50 (in experiment [1]; against CD73) were 0.54 nM and 11.8 nM, respectively.

Take `O=P(O)(O)CP(=O)(O)OC[C@H]1O[C@@H](n2ncc3c(N[C@@H]4CCc5ccc(C(F)(F)F)cc54)cc(Cl)nc32)[C@H](O)[C@@H]1O` [Example 20, (((((2R,3S,4R,5R)-5-(6-chloro-4-(((R)-6-(trifluoromethyl)-2,3-dihydro-1H-inden-1-yl)amino)-1H-pyrazolo[3,4-b]pyridin-1-yl)-3,4-dihydroxytetrahydrofuran-2-yl)methoxy)(hydroxy)phosphoryl)methyl)phosphonic acid]: the IC50 in experiment [1] was 0.27 nM; at CD73, 0.71 nM.

Turning to `O=P(O)(O)CP(=O)(O)OC[C@H]1O[C@@H](n2ncc3c(N[C@@H]4CCc5cc(F)cc(F)c54)cc(Cl)nc32)[C@H](O)[C@@H]1O` [Example 21, (((((2R,3S,4R,5R)-5-(6-chloro-4-(((R)-5,7-difluoro-2,3-dihydro-1H-inden-1-yl)amino)-1H-pyrazolo[3,4-b]pyridin-1-yl)-3,4-dihydroxytetrahydrofuran-2-yl)methoxy)(hydroxy)phosphoryl)methyl)phosphonic acid], the IC50 (in experiment [1]; at CD73) was 0.21 nM in each case.

With `O=P(O)(O)CP(=O)(O)OC[C@H]1O[C@@H](n2ncc3c(N[C@@H]4CCc5cc(F)c(F)cc54)cc(Cl)nc32)[C@H](O)[C@@H]1O` [Example 22, (((((2R,3S,4R,5R)-5-(6-chloro-4-(((R)-5,6-difluoro-2,3-dihydro-1H-inden-1-yl)amino)-1H-pyrazolo[3,4-b]pyridin-1-yl)-3,4-dihydroxytetrahydrofuran-2-yl)methoxy)(hydroxy)phosphoryl)methyl)phosphonic acid], the 50% inhibitory concentration (IC50) worked out at 0.151 nM in experiment [1] and 0.26 nM at CD73.

`Cc1cc(N[C@@H]2CCc3cc(F)cc(F)c32)c2cnn([C@@H]3O[C@H](COP(=O)(O)CP(=O)(O)O)[C@@H](O)[C@H]3O)c2n1` [Example 23, (((((2R,3S,4R,5R)-5-(4-(((R)-5,7-difluoro-2,3-dihydro-1H-inden-1-yl)amino)-6-methyl-1H-pyrazolo[3,4-b]pyridin-1-yl)-3,4-dihydroxytetrahydrofuran-2-yl)methoxy)(hydroxy)phosphoryl)methyl)phosphonic acid]: the IC50 in experiment [1] was 0.245 nM; on CD73, 0.89 nM.
